Earlier results in patent US12371983B2, “Large-scale carbon-mineralization through oxalatization” (THE CURATORS OF THE UNIVERSITY OF MISSOURI, priority 2021, dated 2025).
≈ marks a conversion by molar mass, not a printed value.

Conditions: at 20° C. and one atmospheric pressure

## O=C=O [CO2]
  solubility in water: ~1800 µg/mL (≈ 40.9 mM)
